Data from paper PMC3086094 (Journal of molecular structure, 2011).

How the values were obtained:
[1] = test system: HCT-116 (human colon carcinoma); assay: MTS cytotoxicity assay, HCT-116; format: cell-based
[2] = test system: CCD-18Co (human colon fibroblasts); assay: cells
[3] = test system: CCD-18Co (human colon fibroblasts)
[4] = test system: Caco-2 (human epithelial colorectal adenocarcinoma); assay: cells
[5] = test system: calf thymus DNA (EB-DNA complex); settings: binding to DNA; cited from earlier work

| IC50 ([4]; Caco-2, 24 h) [µM] | IC50 ([4]; Caco-2, 48 h) [µM] | IC50 ([4]; Caco-2, 72 h) [µM] | Compound | IC50 ([1]; HCT-116, 24 h) [µM] | IC50 ([1]; HCT-116, 48 h) [µM] | IC50 ([1]; HCT-116, 72 h) [µM] | IC50 ([2]; 24 h) [µM] | IC50 ([2]; 48 h) [µM] | IC50 ([2]; 72 h) [µM] | cytotoxic selectivity, cancer cells versus normal cells CCD-18Co [3] | KEB, binding constant for ethidium bromide [5] [M⁻¹] |
| --- | --- | --- | --- | --- | --- | --- | --- | --- | --- | --- | --- |
| 23.1 ± 1.2 | 17.9 ± 1.3 | 16.5 ± 2 | COc1cc([C@@H]2c3cc4c(cc3[C@@H](O[C@@H]3O[C@@H]5CO[C@@H](C)O[C@H]5[C@H](O)[C@H]3O)[C@H]3COC(=O)[C@H]23)OCO4)cc(OC)c1O [Etoposide] | 27.2 ± 1.2 | 22.9 ± 1.5 | 18.3 ± 1.4 | 50.1 ± 1.5 | 45.2 ± 1.1 | 42.2 ± 1 | ~ 2.5 times | – |
| – | – | – | CC[n+]1c(-c2ccccc2)c2cc(N)ccc2c2ccc(N)cc21 [ethidium bromide] | – | – | – | – | – | – | – | 1.2e+06 |
